According to patent publication US5861476A, “Peptides and compounds that bind to the IL-1 receptor” (Affymax Technologies N.V., priority 1995, dated 1999):
Where no end group is shown, it is not given here.

How the values were obtained:
[1] = target: T1, IL-1 induced down-regulation of the epidermal growth factor (EGF) receptor in normal human dermal fibroblasts (NHDF) (Homo sapiens, UniProt P14778); assay: Epidermal Growth Factor Receptor Down Regulation Assay; format: cell-based; conditions: 37° C., in the presence of IL-1α, 125I-labeled EGF binding, read-out: IC50 (approximate concentration which blocked 50% of the IL-1 induced down regulation of the EGF receptor)
T1 sequence (P14778 18-569): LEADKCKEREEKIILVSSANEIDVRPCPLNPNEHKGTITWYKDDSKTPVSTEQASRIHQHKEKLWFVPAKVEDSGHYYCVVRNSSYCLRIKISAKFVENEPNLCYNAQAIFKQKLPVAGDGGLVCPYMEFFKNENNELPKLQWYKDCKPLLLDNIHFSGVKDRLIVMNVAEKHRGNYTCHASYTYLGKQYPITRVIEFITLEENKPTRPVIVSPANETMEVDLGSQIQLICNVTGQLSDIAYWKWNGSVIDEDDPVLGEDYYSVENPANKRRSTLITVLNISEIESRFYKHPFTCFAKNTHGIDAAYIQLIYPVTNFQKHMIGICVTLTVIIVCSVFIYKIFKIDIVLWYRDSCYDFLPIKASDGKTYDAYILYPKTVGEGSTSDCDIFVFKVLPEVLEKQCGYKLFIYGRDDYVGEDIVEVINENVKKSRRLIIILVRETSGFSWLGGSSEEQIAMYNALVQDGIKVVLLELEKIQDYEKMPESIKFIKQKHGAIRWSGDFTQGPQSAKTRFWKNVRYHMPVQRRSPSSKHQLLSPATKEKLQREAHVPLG
Text: The protocol set forth in Bird and Saklatvala (1989) J. Immunol. […] This assay examines the effect of the compounds of the invention on the IL-1 induced down-regulation of the epidermal growth factor (EGF) receptor as measured by the binding of ^125 I-labeled EGF to its receptor in normal human dermal fibroblasts (NHDF). […] The table below lists the approximate concentration of representative peptides of the invention which blocked 50% of the IL-1 induced down regulation of the EGF receptor. IC50 values are indicated symbolically by the symbols "-", "+", and "++". […] Those peptides which give IC50 values of less than or equal to 100 μM are given a "+", while those which give IC50 values of 500 nM or less are indicated with a "++". Those peptides which give IC50 values at or near the cutoff point for a particular symbol are indicated with a hybrid, e.g. "±". Those peptides for which IC50 values were not determined are listed as "N.D".

[2] = target: T2, IL-1 induced E-selectin in HUVEC cells (Homo sapiens, UniProt P14778); assay: Peptide Effects on IL-1 Induced E-Selectin (HUVEC Cells); format: cell-based; conditions: 120 pM IL-1α, read-out: IC50 (concentration required to inhibit 50% of IL-1 induced E-selectin expression)
T2 sequence (P14778 18-569): T1 sequence (P14778 18-569)
Procedure: The compounds of the present invention were assayed for their ability to inhibit the expression of IL-1 induced E-selectin in HUVEC cells (human umbilical vein endothelial cells). HUVEC cells are grown to confluency in the wells of a 24-well microtiter plate. The compounds were serially diluted in DMEM/F12+0.1% BSA ("SFM"with 120 pM IL-1α. The cells were washed and then incubated with IL-1α and the compound to be tested for 15 minutes. The cells were again washed and incubated in SFM for 4 hours. The cells were washed and incubated with anti-selectin antibody for 30 minutes. Following antibody incubation, the cells were incubated with ^125 I Protein A and washed. The amount of ^125 I bound to the cells was then determined. The concentration of compounds required to inhibit 50% of IL-1 induced E-selectin expression is shown below.

IL-1RtI = target: T3, IL-1RtI (Homo sapiens, UniProt P14778); assay: Inhibition of 125I-IL-1α binding to IL-1RtI (Example 3); conditions: inhibition of 125I-IL-1α binding to IL-1RtI; soluble peptide unless marked *
T3 construct: made in house; host or cells: recombinant host cells (one form soluble from baculovirus transformed host cells; another PIG-tailed and cleaved from the cell surface)
T3 sequence (P14778 18-336): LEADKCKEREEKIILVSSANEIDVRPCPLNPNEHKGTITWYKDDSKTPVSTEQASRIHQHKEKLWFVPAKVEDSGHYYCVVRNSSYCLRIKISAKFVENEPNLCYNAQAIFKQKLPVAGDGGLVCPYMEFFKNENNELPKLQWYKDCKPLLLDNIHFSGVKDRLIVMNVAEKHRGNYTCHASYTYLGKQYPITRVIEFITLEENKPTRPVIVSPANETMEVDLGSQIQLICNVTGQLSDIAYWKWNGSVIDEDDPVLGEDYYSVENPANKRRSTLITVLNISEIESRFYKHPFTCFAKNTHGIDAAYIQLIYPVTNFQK
How it was run: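 Competition with 90 pM 125I-IL-1α was run in duplicate for 2 h at 4 °C in HEPES-buffered RPMI with 1% BSA, pH 7.2-7.3, against either antibody-captured truncated receptor or cells with full-length IL-1RtI. Gamma counting of NaOH-detached material gave approximate IC50; high-affinity peptides used 24-well format.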

Measured: IC50

TANVSSFEWTPGYWQPYALPL
≤ 500 nM: [1] | [2] | IL-1RtI
